Measurements: patent publication US5863540A, “Adhesion molecule” (Duke University, priority 1993, dated 1999)

How the values were obtained:
[1] = test system: T cell receptor-mediated T cell activation; experiment: T cell receptor-mediated T cell activation (anti-CD3ε mab Leu 4) of PBMC, 3H-thymidine, CD44 peptides; format: cell-based, human
Procedure: Synthetic peptides were prepared by FMoc or TBoc chemistry, purified usin
HPLC, and resuspended in RPMI media prior to addition to 4 day in vitro
cultures. Following 4 days in culture, 3Hthymidine was added, and
following an incubation of 4 hours, the cultures were harvested using an
automated multiwell harvester using standard techiques.

[2] = test system: CD2-Mediated T Cell Activation; experiment: T Cell Activation Assay: proliferation of PBMC stimulated with CD2 mabs 35.1 and 9-1; format: cell-based, human; conditions: soluble, free protein instead of liposomes, data not shown
Procedure: CD44 Liposomes. Liposomes were prepared by the method of Mimms et al. ((1981) Biochemistry 20:833-840), using 1 μM purified CD44 or control glycophorin protein, 1 nM L-α-dioleoyl lecthin (Avanti Polar Lipids, Birmingham, Ala.), and 240 nM OG. Liposomes were analyzed for content of the appropriate protein using a novel labelling technique and flow cytometry. Liposomes were incubated with 5-(N-octadecanoyl) aminofluorescein (Molecular Probes, Eugene, Oreg.) in PBS×10 min at room temperature. Fluoresceinated liposomes were then reacted with […] magnetic beads (Dynabeads M-450 Goat anti-Mouse IgG, Dynal Inc., Great Neck, N.Y.) coated with CD44 (A3D8) or anti-glycophorin (E3,E4,E5) mAbs. After 45 minutes (4° C.), with continuous end-over-end rotation, beads were washed ×3 in PBS using a magnet to immobilize the beads during PBS changes. Fluoresceinated liposome-bead conjugates were then analyzed by flow cytometry.
T Cell Activation Assay. PBMC from healthy donors were stimulated with optimal mitogenic concentration of CD2 mabs 35.1 and 9-1 as described (Denning et al.). Where indicated, CD44 or control glycophorin liposomes (final protein range used was 28-140 nM) were added to these cultures 20 min prior to addition of CD2 mabs. […]

| Substance | effect on T cell activation (in words) ([1]; 1 mg/ml peptide, anti-CD3 triggered PBMC cultures) | % Inhibition ([1]; peptide 1 mg/ml, Leu 4 1:1000, 4 day culture) | Δ CPM 3H-Thymidine/106 Cells in Culture ([1]; peptide 1 mg/ml, Leu 4 1:1000, 4 day culture, control 199,816) | effect on CD2 stimulated PBMC culture [2] |
| --- | --- | --- | --- | --- |
| (C)NRNDVTGGRRDPNHSEGS (CNRNDVTGGRRDPNHSEGS; N-terminal Cys) [CD44-19A] | inhibition of T cell activation | 75% | 50,318 Δ CPM 3H-Thymidine/106 Cells | – |
| soluble, free CD44 protein: CD44 protein affinity-purified on A3D8-Sepharose from HuT 78 T cell lysate, single band at 80-85 kD | – | – | – | Identical results |
